From US20250281483A1, “TRANSCRIPTION FACTOR EB ACTIVATORS AND USES THEREOF” (Astellas Engineered Small Molecules US, Incorporated, priority 2022, published 2025) come the findings set out here.

The structures appear in SMILES notation.

Broadly, the EC50 is the concentration at which the effect is half-maximal.

The assay concerns the target T1, TFEB (Homo sapiens, UniProt P19484).
T1 sequence (P19484 1-476): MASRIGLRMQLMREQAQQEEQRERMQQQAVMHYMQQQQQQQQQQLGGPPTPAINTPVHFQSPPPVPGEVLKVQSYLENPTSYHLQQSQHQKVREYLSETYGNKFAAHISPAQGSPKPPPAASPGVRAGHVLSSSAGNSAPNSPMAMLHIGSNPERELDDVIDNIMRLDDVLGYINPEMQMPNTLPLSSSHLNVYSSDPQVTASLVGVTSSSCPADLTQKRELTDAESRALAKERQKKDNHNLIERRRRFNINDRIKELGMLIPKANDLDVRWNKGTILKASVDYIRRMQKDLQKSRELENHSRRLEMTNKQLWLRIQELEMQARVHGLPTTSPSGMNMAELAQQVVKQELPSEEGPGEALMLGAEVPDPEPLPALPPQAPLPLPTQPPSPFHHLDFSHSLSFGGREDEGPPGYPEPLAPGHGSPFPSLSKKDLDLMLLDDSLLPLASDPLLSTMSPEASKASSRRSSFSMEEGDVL
As to the kind of experiment: Tfeb-Translocation Assay HEK-293T-oEX-Tfeb-GFP Cell Line. It counts as cell-based. Conditions: HEK-293T-oEX-TFEB-GFP cells; translocation positive cells ratio; read-out: TFEB Translocation EC50. Here is the method:
Tfeb-Translocation Assay HEK-293T-oEX-Tfeb-GFP Cell Line
• 1). Added 2×10^6 cell into a T75 flask with 15 mL DiVEM medium (with 10% FBS, 1% PS, 1×GLUTAMAX, 1×MEM NEAA, 1×HEPES Buffer Solution and 5 ug/mL blasticidin). • 2). Culturing for 48-72 hours. Cells in logarithmic growth phase were taken for experiment. The other cells were passaged as described in step 1. • 3). Seeded 1×10^4 cells/30 μL/well into 384-well plate (BD 356663). Cultured overnight at 37° C. & 5% CO2 incubator. • 4). Note: Used cells <10 passage
• 1). Compounds were firstly diluted by DMSO to the stock needed (10 mM), and aliquoted and stored at −20° C. • 2). Took one aliquot each time and made 3-fold or 2-fold dilutions as indicated, total 10 doses plus one DMSO control well in the source plate. • 3). Added 150 or 90 nL/well compounds solution to the assay plate by ECHO and incubated for 6 or 18 hours respectively at 37° C. & 5% CO2 incubator.
• 1). Added 30 uL 8% PFA into the wells and incubated 20 min at room temperature. • 2). Discarded the medium, washed the wells twice with DPBS to eliminate foam and bubbles in the well.
• 1). Diluted Hoechest-333824 in DPBS to get 2 μg/mL solution and added 30 uL/well into assay plate, incubated at room temperature for 20 mins. • 2). Discarded the supernatant, washed the wells twice with DPBS to eliminate foam and bubbles in the well. Then added DPBS 20 uL/well.
3). Scanned Plate by Operetta.
• 1). Reference compound: Torin 1 • 2). Test compounds: C1, C2, C3, C4, C5, C6. • 3). Diluted compounds in 384 LDV-dilution plate according to the dilution plate map • 4). Compounds starting concentration: Torin 1: 300 nM and Test compounds: 50 uM.
• 1). Selected all nucleus by Operetta as ‘All Cells’ • 2). Calculated the EGFP average intensity inside the Nucleus region. • 3). Selected population that the EGFP mean intensity inside the Nucleus region>background as the EGFP-positive cells • 4). Selected the Surrounding region of the nucleus and calculated the EGFP mean intensity of the region • 5). Inside the EGFP-positive cell population, selected the cells with EGFP mean intensity inside the Nucleus region/the EGFP mean intensity inside the surrounding region=1.2 (This ratio could be slightly adjusted from time to time) as the Translocation positive cell. • 6). Outputted the ratio of Translocation positive cell/EGFP-positive cells as the Translocation Positive Ratio. • 7). Each time set the ratio of DMSO group (Control Group) as ˜15% and then normalized the compound group to the DMSO group.

As to `Cc1nc2ccn(Cc3ccccc3)c(=O)c2cc1C(=O)NCc1cncnc1` [Example 34, 6-benzyl-2-methyl-5-oxo-N-(pyrimidin-5-ylmethyl)-5,6-dihydro-1,6-naphthyridine-3-carboxamide], the EC50 lay within 0.1 to 1 µM.

Consider `Cc1nc2ccn(Cc3ccccc3)c(=O)c2cc1C(=O)NCc1ccc(F)cn1` [Example 35, 6-benzyl-N-((5-fluoropyridin-2-yl)methyl)-2-methyl-5-oxo-5,6-dihydro-1,6-naphthyridine-3-carboxamide], for which the EC50 is < 0.1 µM.

`Cc1nc2ccn(Cc3ccccc3)c(=O)c2cc1C(=O)NCc1ncccc1F` [Example 36, 6-benzyl-N-((3-fluoropyridin-2-yl)methyl)-2-methyl-5-oxo-5,6-dihydro-1,6-naphthyridine-3-carboxamide]: the EC50 fell in the range of 1 to 10 µM.

For the compound `Cc1nc2ccn(C(C)c3ccccc3)c(=O)c2cc1C(=O)NCc1ccccn1` (stereo not drawn) [Example 37, 2-methyl-5-oxo-6-(1-phenylethyl)-N-(pyridin-2-ylmethyl)-5,6-dihydro-1,6-naphthyridine-3-carboxamide], the EC50 lay in the range of 0.1 to 1 µM.

Turning to `Cc1nc2ccn(Cc3ccccc3)c(=O)c2cc1C(=O)NCc1ccc(Cl)cn1` [Example 38, 6-benzyl-N-((5-chloropyridin-2-yl)methyl)-2-methyl-5-oxo-5,6-dihydro-1,6-naphthyridine-3-carboxamide], the EC50 is < 0.1 µM.

Turning to `Cc1nc2ccn(Cc3ccccc3)c(=O)c2cc1C(=O)NCc1cc(F)ccn1` [Example 39, 6-benzyl-N-((4-fluoropyridin-2-yl)methyl)-2-methyl-5-oxo-5,6-dihydro-1,6-naphthyridine-3-carboxamide], the EC50 lay within 0.1 to 1 µM.

As for `Cc1nc2ccn(CC3CCCCC3)c(=O)c2cc1C(=O)NCc1ccccn1` [Example 40, 6-(cyclohexylmethyl)-2-methyl-5-oxo-N-(pyridin-2-ylmethyl)-5,6-dihydro-1,6-naphthyridine-3-carboxamide], the EC50 was ≥ 10 µM.

For `Cc1nc2ccn(Cc3ccccn3)c(=O)c2cc1C(=O)NCc1ccccn1` [Example 41, 2-methyl-5-oxo-N,6-bis(pyridin-2-ylmethyl)-5,6-dihydro-1,6-naphthyridine-3-carboxamide], the EC50 lay in the range of 1 to 10 µM.

With `CNC(=O)c1cc2c(=O)n(Cc3ccccc3)ccc2nc1C` [Example 42, 6-benzyl-N,2-dimethyl-5-oxo-5,6-dihydro-1,6-naphthyridine-3-carboxamide], the EC50 was ≥ 10 µM.

Regarding `Cc1nc2ccn(Cc3ccccc3)c(=O)c2cc1C(=O)NCc1ccc(C(N)=O)cc1` [Example 43, 6-benzyl-N-(4-carbamoylbenzyl)-2-methyl-5-oxo-5,6-dihydro-1,6-naphthyridine-3-carboxamide], the EC50 was ≥ 10 µM.

As to `Cc1nc2ccn(Cc3ccc(F)cn3)c(=O)c2cc1C(=O)NCc1ccccn1` [Example 44, 6-((5-fluoropyridin-2-yl)methyl)-2-methyl-5-oxo-N-(pyridin-2-ylmethyl)-5,6-dihydro-1,6-naphthyridine-3-carboxamide], the EC50 was in the range of 1 to 10 µM.

`Cc1nc2ccn(C(C)C)c(=O)c2cc1C(=O)NCc1ccccn1` [Example 45, 6-isopropyl-2-methyl-5-oxo-N-(pyridin-2-ylmethyl)-5,6-dihydro-1,6-naphthyridine-3-carboxamide]: the EC50 was in the range of 0.1 to 1 µM.

For the compound `Cc1nc2ccn(-c3ccccc3)c(=O)c2cc1C(=O)NCc1ccccn1` [Example 46, 2-methyl-5-oxo-6-phenyl-N-(pyridin-2-ylmethyl)-5,6-dihydro-1,6-naphthyridine-3-carboxamide], the EC50 fell in the range of 1 to 10 µM.

Take `Cc1nc2ccn(Cc3ccc(F)cc3)c(=O)c2cc1C(=O)NCc1ccccn1` [Example 47, 6-(4-fluorobenzyl)-2-methyl-5-oxo-N-(pyridin-2-ylmethyl)-5,6-dihydro-1,6-naphthyridine-3-carboxamide]: the EC50 is < 0.1 µM.

With `Cc1cnc(Cn2ccc3nc(C)c(C(=O)NCc4ccccn4)cc3c2=O)o1` [Example 48, 2-methyl-6-((5-methyloxazol-2-yl)methyl)-5-oxo-N-(pyridin-2-ylmethyl)-5,6-dihydro-1,6-naphthyridine-3-carboxamide], the EC50 was ≥ 10 µM.

With `Cc1nc2ccn(Cc3cnn(C)c3)c(=O)c2cc1C(=O)NCc1ccccn1` [Example 49, 2-methyl-6-((1-methyl-1H-pyrazol-4-yl)methyl)-5-oxo-N-(pyridin-2-ylmethyl)-5,6-dihydro-1,6-naphthyridine-3-carboxamide], the EC50 is ≥ 10 µM.

On to `Cc1nc2ccn(Cc3ccncc3)c(=O)c2cc1C(=O)NCc1ccccn1` [Example 52, 2-methyl-5-oxo-N-(pyridin-2-ylmethyl)-6-(pyridin-4-ylmethyl)-5,6-dihydro-1,6-naphthyridine-3-carboxamide], for which the EC50 is ≥ 10 µM.

With `Cc1nc2ccn(C)c(=O)c2cc1C(=O)NCc1ccccn1` [Example 53, 2,6-dimethyl-5-oxo-N-(pyridin-2-ylmethyl)-5,6-dihydro-1,6-naphthyridine-3-carboxamide], the EC50 was ≥ 10 µM.

Take `Cc1ccc(Cn2ccc3nc(C)c(C(=O)NCc4ccccn4)cc3c2=O)cc1` [Example 54, 2-methyl-6-(4-methylbenzyl)-5-oxo-N-(pyridin-2-ylmethyl)-5,6-dihydro-1,6-naphthyridine-3-carboxamide]: the EC50 was < 0.1 µM.

`Cc1nc2ccn(Cc3cccc(F)c3)c(=O)c2cc1C(=O)NCc1ccccn1` [Example 55, 6-(3-fluorobenzyl)-2-methyl-5-oxo-N-(pyridin-2-ylmethyl)-5,6-dihydro-1,6-naphthyridine-3-carboxamide]: the EC50 is < 0.1 µM.

Turning to `Cc1nc2ccn(Cc3ccccc3F)c(=O)c2cc1C(=O)NCc1ccccn1` [Example 56, 6-(2-fluorobenzyl)-2-methyl-5-oxo-N-(pyridin-2-ylmethyl)-5,6-dihydro-1,6-naphthyridine-3-carboxamide], the EC50 was in the range of 0.1 to 1 µM.

On to `Cc1nc2ccn(Cc3ccccc3)c(=O)c2cc1C(=O)NCc1cc(F)c(Cl)cn1` [Example 57, 6-benzyl-N-((5-chloro-4-fluoropyridin-2-yl)methyl)-2-methyl-5-oxo-5,6-dihydro-1,6-naphthyridine-3-carboxamide], for which the EC50 was < 0.1 µM.

`Cc1nc2ccn(Cc3cccnc3)c(=O)c2cc1C(=O)NCc1ccccn1` [Example 58, 2-methyl-5-oxo-N-(pyridin-2-ylmethyl)-6-(pyridin-3-ylmethyl)-5,6-dihydro-1,6-naphthyridine-3-carboxamide]: the EC50 is ≥ 10 µM.

Take `COCCOCCOCCn1ccc2nc(C)c(C(=O)NCc3ccc(Cl)cn3)cc2c1=O` [Example 59, N-((5-chloropyridin-2-yl)methyl)-6-(2-(2-(2-methoxyethoxy)ethoxy)ethyl)-2-methyl-5-oxo-5,6-dihydro-1,6-naphthyridine-3-carboxamide]: the EC50 was ≥ 10 µM.

On to `Cc1nc2ccn(CC34CC(C3)C4)c(=O)c2cc1C(=O)NCc1ccccn1` [Example 60, 6-(bicyclo[1.1.1]pentan-1-ylmethyl)-2-methyl-5-oxo-N-(pyridin-2-ylmethyl)-5,6-dihydro-1,6-naphthyridine-3-carboxamide], for which the concentration for a half-maximal effect (EC50) was in the range of 1 to 10 µM.

Consider `Cc1nc2ccn(Cc3ccc(F)c(F)c3)c(=O)c2cc1C(=O)NCc1ccccn1` [Example 61, 6-(3,4-difluorobenzyl)-2-methyl-5-oxo-N-(pyridin-2-ylmethyl)-5,6-dihydro-1,6-naphthyridine-3-carboxamide], for which the EC50 was < 0.1 µM.

Consider `Cc1nc2ccn(Cc3ccc(F)c(F)c3)c(=O)c2cc1C(=O)NCc1cc(F)c(F)cn1` [Example 62, 6-(3,4-difluorobenzyl)-N-((4,5-difluoropyridin-2-yl)methyl)-2-methyl-5-oxo-5,6-dihydro-1,6-naphthyridine-3-carboxamide], for which the 50% effective concentration (EC50) is < 0.1 µM.
